{"source": "patent US20080076824A1", "about": "“Compounds That Inhibit Replication Of Human Immunodeficiency Virus” (priority 2004, published 2008)", "key": {"[1]": {"system": "HIV-2 (ROD)", "assay": "microbe, parasite or virus in culture", "type": "cell-based", "details": "Human immunodeficiency virus 2, CCRF-CEM, read-out: EC50 (CEM) HIV-2 (ROD)", "procedure,_shortened": "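CEM, C8166 or MT-4 cells (4 to 5×10^5 cells/ml) infected with HIV-2 ROD at ~100 CCID50/ml, then incubated with 5-fold compound dilutions at 37 °C for 4–5 days. Giant cell formation scored microscopically in CEM and C8166 cultures; MT-4 viability counted by trypan blue exclusion.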"}, "[2]": {"system": "HIV (SF2 virus)", "assay": "HIV infectivity assay, SF2-infected H9 cells, p24 quantification", "type": "cell-based", "details": "hydrochloride", "method": "The remaining wells were filled with sterile distilled water. The cell culture plates were incubated at 37° C. and 5% CO2. After four days the medium was changed, after eight days the medium was changed and the cells were collected. After 11 days, the infection was stopped, the cells were viewed in a 10× magnification microscope and 650 μl of each cell supernatant was collected and frozen at −80° C. for further analysis. After five more days, the supernatants were thawed and used in a conventional reverse transcriptase (RT) activity assay (e.g., Roche AMPLICOR MONITOR™) or a p24 quantification assay (e.g., Abbott Laboratories, Chicago). (See U.S. Pat. No. 6,258,932 and U.S. patent application Ser. No. 10/235,158, both of which are hereby expressly incorporated by reference in its entireties).\n[…] The cells in the samples were counted and then centrifuged. The cells were then resuspended in 10 ml of RPMI 1640 (containing fetal calf serum) and either […] Metabolite X or 100 μM GPG-NH2. Uninfected control and untreated control samples were also included in the experiment. The samples were then incubated overnight at 37° C. at 5% CO2.\nThen, the amount of p24 in the samples was analysed using a conventional p24 detection assay (see U.S. Pat. No. 6,258,932).\nThree replicate samples (“replicates”) of uninfected samples and untreated samples were also included in the experiment as controls. The inhibition of HIV replication was monitored by quantifying the levels of p24 using a conventional detection kit.\nThree replicates of unninfected samples and untreated samples were also included in the experiment as controls."}, "[3]": {"system": "HIV-1 (IIIB)", "assay": "microbe, parasite or virus in culture", "details": "Human immunodeficiency virus 1, IIIB", "method": "(§1) MT-4, C8166 or CEM cells (4 to 5×10^5 cells per ml) were suspended in fresh culture medium (RPMI-1640 medium supplemented with 10% fetal bovine serum (FBS) (BioWittaker Europe, Verviers, Belgium), 2 mM L-glutamine and […] NaHCO3). Subsequently, the cells were infected with HIV-1 (IIIB) or HIV-2(ROD) at ˜100 CCID50 (1 CCID50 being the dose infective for 50% of the cell cultures) per ml of cell suspension. Then, 100 μl of the infected cell suspension were transferred to 96-well microplate wells, mixed with 100 μl of the appropriate (5-fold) dilutions of the test compounds and further incubated at 37° C. After 4 to 5 days, giant cell formation was recorded microscopically in the CEM and C8166 cell cultures. The MT-4 cell cultures were treated with trypan blue and the number of viable cells was determined."}, "[4]": {"system": "HIV-2(ROD)", "assay": "microbe, parasite or virus in culture", "method": "as §1"}, "[5]": {"system": "HIV (SF2 virus)", "assay": "HIV infectivity assay, SF2-infected H9 cells, reverse transcriptase (RT) quantification in supernatant", "type": "cell-based", "details": "for RT mean / RT / OD405-620 / OD405-620 - Blank: fetal calf serum; for RT mean: mean of replicates; for RT: single replicate; for RT / OD405-620 / OD405-620 - Blank: listed as αHGA, hydrochloride"}}, "note": "Several values for one entry are separate records, joined by “and”; a condition that tells them apart may be missing. Identical values can stand only once. Entries after “also recorded” stand apart in the source; their conditions may differ. Counter-ions that a name gives are not always drawn. Like-named read-outs stand apart in the source and are kept apart here.", "data": [{"smiles": "NC(=O)C(N)O", "note": "(stereo not drawn) [AlphaHGA, α-Hydroxy-glycinamide hydrochloride]", "values": [{"measurement": "EC50", "setting": "[1]", "result": "52 ± 23", "unit": "µM"}, {"measurement": "OD1", "setting": "[2]; 50 μM, fetal calf serum, replicates (1)-(3)", "result": "0.183 and 0.232 and 0.147"}, {"measurement": "OD2", "setting": "[2]; 50 μM, fetal calf serum", "result": "0.185 and 0.216 and 0.139"}, {"measurement": "conc p24", "setting": "[2]; 50 μM, fetal calf serum", "result": "0.26 ng/mL and 0.33 ng/mL and 0.20 ng/mL"}, {"measurement": "mean OD", "setting": "[2]; 50 μM, fetal calf serum", "result": "0.184 and 0.224 and 0.143"}, {"measurement": "mean OD - blank", "setting": "[2]; 50 μM, fetal calf serum", "result": "0.142 and 0.182 and 0.101"}, {"measurement": "inhibition of HIV, accumulation of p24, compared with reference", "setting": "[2]; fetal calf serum", "result": "as effectively as GPG-NH2; also recorded: as effectively as G-NH2"}, {"measurement": "inhibition of HIV replication, accumulation of p24", "setting": "[2]; human serum", "result": "effective inhibitors of HIV replication in human serum; also recorded: inhibited HIV replication in human serum"}, {"measurement": "EC50", "setting": "[3]; C8166, read-out: EC50 (C8166) HIV-1 (IIIB)", "result": 200, "unit": "µM"}, {"measurement": "EC50", "setting": "[3]; MT4, read-out: EC50 (MT-4) HIV-1 (IIIB)", "result": "≥ 500", "unit": "µM"}, {"measurement": "EC50", "setting": "[3]; MT4, read-out: EC50 (MT-4) HIV-1(IIIB)", "result": "≥ 500", "unit": "µM"}, {"measurement": "EC50", "setting": "[4]; Human immunodeficiency virus 2, C8166, read-out: EC50 (C8166) HIV-2 (ROD)", "result": 125, "unit": "µM"}, {"measurement": "EC50", "setting": "[4]; Human immunodeficiency virus 2, MT4, read-out: EC50 (MT-4) HIV-2 (ROD)", "result": "≥ 500", "unit": "µM"}, {"measurement": "EC50", "setting": "[4]; read-out: EC50 (MT-4) HIV-2 (ROD), Table 20", "result": "≥ 500", "unit": "µM"}, {"measurement": "RT mean", "setting": "[5]; 0.5 μM", "result": 7539, "unit": "pg/mL"}, {"measurement": "RT", "setting": "[5]; 0.5 μM", "result": "6982 pg/mL and 9916 pg/mL and 5721 pg/mL"}, {"measurement": "OD405-620", "setting": "[5]; 0.5 μM", "result": "0.692 and 0.962 and 0.576"}, {"measurement": "OD405-620 - Blank", "setting": "[5]; 0.5 μM", "result": "0.666 and 0.936 and 0.55"}, {"measurement": "RT mean", "setting": "[5]; 1 μM", "result": 4594, "unit": "pg/mL"}, {"measurement": "RT", "setting": "[5]; 1 μM", "result": "5590 pg/mL and 4482 pg/mL and 3710 pg/mL"}, {"measurement": "OD405-620", "setting": "[5]; 1 μM", "result": "0.564 and 0.462 and 0.391"}, {"measurement": "OD405-620 - Blank", "setting": "[5]; 1 μM", "result": "0.538 and 0.436 and 0.365"}, {"measurement": "RT mean", "setting": "[5]; 2 μM", "result": 5934, "unit": "pg/mL"}, {"measurement": "RT", "setting": "[5]; 2 μM", "result": "8003 pg/mL and 6492 pg/mL and 3308 pg/mL"}, {"measurement": "RT mean", "setting": "[5]; 4 μM", "result": 5315, "unit": "pg/mL"}, {"measurement": "RT", "setting": "[5]; 4 μM", "result": "5340 pg/mL and 4688 pg/mL and 5916 pg/mL"}, {"measurement": "OD405-620", "setting": "[5]; 4 μM", "result": "0.541 and 0.481 and 0.594"}, {"measurement": "OD405-620 - Blank", "setting": "[5]; 4 μM", "result": "0.515 and 0.455 and 0.568"}, {"measurement": "RT mean", "setting": "[5]; 8 μM", "result": 5300, "unit": "pg/mL"}, {"measurement": "RT", "setting": "[5]; 8 μM", "result": "6688 pg/mL and 4971 pg/mL and 4242 pg/mL"}, {"measurement": "OD405-620", "setting": "[5]; 8 μM", "result": "0.665 and 0.507 and 0.44"}, {"measurement": "OD405-620 - Blank", "setting": "[5]; 8 μM", "result": "0.639 and 0.481 and 0.414"}, {"measurement": "RT mean", "setting": "[5]; 16 μM", "result": 1134, "unit": "pg/mL"}, {"measurement": "RT", "setting": "[5]; 16 μM", "result": "1514 pg/mL and 666 pg/mL and 1221 pg/mL"}, {"measurement": "OD405-620", "setting": "[5]; 16 μM", "result": "0.189 and 0.111 and 0.162"}, {"measurement": "OD405-620 - Blank", "setting": "[5]; 16 μM", "result": "0.163 and 0.085 and 0.136"}, {"measurement": "HIV replication at 25 μM", "setting": "[5]; 25 μM", "result": "neglible levels"}, {"measurement": "RT mean", "setting": "[5]; 32 μM", "result": 72, "unit": "pg/mL"}, {"measurement": "RT", "setting": "[5]; 32 μM", "result": "48 pg/mL and 70 pg/mL and 97 pg/mL"}, {"measurement": "OD405-620", "setting": "[5]; 32 μM", "result": "0.269 and 0.373 and 0.497"}, {"measurement": "OD405-620 - Blank", "setting": "[5]; 32 μM", "result": "0.243 and 0.347 and 0.471"}, {"measurement": "IC50", "setting": "[5]; Human immunodeficiency virus 1, H9, 264 h", "result": "6 to 9", "unit": "µM"}, {"measurement": "stability to incubation at 37° C.", "setting": "[5]; diluted sample, antiretroviral activity compared with freshly diluted compound", "result": "stable to incubation at 37 °C for at least three days"}, {"measurement": "concentration for appreciable inhibition of HIV replication", "setting": "[5]; whether heat-treated or not", "result": "above 8 μM"}, {"measurement": "concentration for better antiretroviral activity", "setting": "[5]; whether heat-treated or not", "result": "above 16 μM"}, {"measurement": "concentration for very efficient inhibition of HIV replication", "setting": "[5]; whether heat-treated or not", "result": "above 30 μM"}]}]}
